Assay results from patent publication US7655626B2, “Antiangiogenic peptides” (Universite de Liege, priority 2004, dated 2010).

Experiments:
[1] = Lipid phase (liposome) fusion, R18 fluorescence; details: for Relative liposome fusion, pH 8 UC / Relative liposome fusion, pH 4 UC / Relative liposome fusion, pH 6 UC: uncharged liposomes; for Relative liposome fusion, pH 4 C / Relative liposome fusion, pH 6 C / Relative liposome fusion, pH 8 C: charged liposomes
Experimental: Lipid phase fusion was measured by following the fluorescence of a liposoluble marker, R18. When incorporated into liposomes at a high surface density, R18 fluorescence is attenuated. Upon dilution of the marker through membrane fusion of labeled and unlabeled liposomes, the attenuation is relieved and R18 fluorescence increases. Labeled liposomes were prepared by blending R18 into the lipid film (see table 1). Labeled and unlabeled liposomes were mixed in a 1:4 ratio (w/w) and diluted to a concentration of 50 μM. Fluorescence is measured at room temperature (excitation λ: 560 nm, emission λ: 590 nm) on a Perkin Elmer LS-50B fluorimeter. The ability of PO-PRL to induce liposome fusion was analyzed in two different liposome preparations at different pH (table 1).
The following buffers were used: pH 8 buffer (10 mM Tris-HCl, pH=8; 150 mM NaCl; 0.01% EDTA; 1 mM NaN3), pH 6 buffer (10 mM Sodium-Acetate, pH=6; 150 mM NaCl; 0.01% EDTA; 1 mM NaN3), pH 4 buffer (10 mM Sodium Acetate, pH=4; 57 mM Acetic Acid)
The following concentrations of the peptide were used: • 600 μM corresponding to a molar peptide/lipid ratio (R) of 0.2 • 300 μM corresponding to a peptide/lipid ratio (R) of 0.1 • 150 μM corresponding to a peptide/lipid ratio (R) of 0.05 • 60 μM corresponding to a peptide/lipid ratio (R) of 0.02 • 30 μM corresponding to a peptide/lipid ratio (R) of 0.01.

[2] = Secondary structure by ATR-FTIR; assay type: physicochemical; details: peptide dissolved in 100% DMSO
Experimental: The conformation of the peptide in solution is analyzed by Fourier transformed infrared spectroscopy (ATR-FTIR). The sample (20 μg) is spread on a Germanium plate and spectra are recorded between 1800 and 1000 cm−1. The deconvolution of the 1700-1600 cm−1 area, corresponding to the amide I band, allows the determination of the secondary structure of the peptide (Goormaghtigh, E., et al. Biochim Biophys Acta 1422:[…] (1999)). The secondary structure of the peptide is given Table 3. Tilted peptides are often in β structure in solution, while being helical in the presence of lipids (Martin, I., et al. Biochem Biophys Res Commun 175:872-9 (1991)).

BACE cells [3] = test: Apoptosis by flow cytometry (propidium iodide, sub-G1 population); assay type: cell-based, Bovine; details: 10 nM; 18-h treatment; untreated cells 1%
Experimental: In order to determine the effect of MPB-PO-PRL on endothelial cell apoptosis, the inventors have analyzed the DNA content of MBP-PO-PRL treated cells by flow cytometry. For this purpose, DNA was labeled with propidium iodide. Bovine adrenal cortex endothelial (BACE) cells were plated in low-glucose Dulbbecco's modified Eagle's medium containing 10% fetal calf serum (FCS) and 100 U/ml penicillin/streptomycin per ml (10% FCS medium) at a density of cells 5×10^5/100 mm plate. 24 h after plating, cells were treated for 18 h with the proteins of interest. The cells were then harvested and fixed and permeabilized in ice-cold ethanol for 2 h before centrifugation and incubation (at 37° C. for 30 min) in PBS containing Rnase (5 μg/ml) and propidium iodide (50 μg/ml). The cells were analysed using a Coulter Epics XL flow cytometer.

BACE cells [4] = test: In vitro capillary formation, collagen gel assay; assay type: cell-based, Bovine; details: 10 nM
Experimental: In order to further analyze the ability of the MBP-PO-PRL to prevent angiogenesis in vitro, its capacity to prevent capillary formation was analyzed in a collagen gel assay. This assay was performed as follows: 20000 cells were plated between two collagen gels (5 volumes rat tail collagen, 1 volume 10×M199 medium, 50 mM NaHCO3). Gels were overlaid with 10% FBS medium containing or not recombinant proteins of interest.

[5] = test system: B16-F10 murine melanoma cells; test: Viability assay (calcein-AM), B16-F10; assay type: cell-based; details: 10 nM; 72 h
Experimental: (§1) In order to determine whether the effect of tilted peptides exerted on endothelial cells is cell specific, a viability assay was performed on BACE and ABAE endothelial cells and on two tumoral cells lines, the B16-F10 murine melanoma cells and the MDA-MB-231 human breast cancer cell. Viable cells are detected by the presence of intracellular esterase, determined by the enzymatic conversion of non fluorescent calcein AM (an ester derivative) into fluorescent calcein.
(§2) To determine whether the activity of the MBP-PO-PRL and MBP-PO-GH is specific for endothelial cells, their ability to affect viability of B16-F10 and MDA-MB-231 cell line was determined. 25000 MDA-MB-231 cells and B16-F10 cells were plated in 24-well plates, respectively in 0.5 ml 10% FCS/RPMI medium and in 10% FCS/DMEM 4500 medium. The cells were treated with recombinant proteins or campthotecin for 72 h. Cells were washed, incubated with calcein-AM and fluorescence determined as described above.

[6] = test system: MDA-MB-231 human breast cancer cell; test: Viability assay (calcein-AM), MDA-MB-231; assay type: cell-based; details: 10 nM; 72 h
Experimental: as §1, §2

FLSLIVSILRSWNE [PO-PRL]
Relative liposome fusion, pH 8 UC ([1]; R 0.05 (150 μM), 15 min): 38%
Relative liposome fusion, pH 4 C ([1]; R 0.05, 15 min): 35%
Relative liposome fusion, pH 4 UC ([1]; R 0.05, 15 min): 100%
Relative liposome fusion, pH 6 C ([1]; R 0.05, 15 min): 35%
Relative liposome fusion, pH 6 UC ([1]; R 0.05, 15 min): 38%
Relative liposome fusion, pH 8 C ([1]; R 0.05, 15 min): 34%
Relative liposome fusion, pH 8 UC ([1]; R 0.1 (300 μM), 15 min): 64%
Relative liposome fusion, pH 4 C ([1]; R 0.1, 15 min): 34%
Relative liposome fusion, pH 4 UC ([1]; R 0.1, 15 min): 105%
Relative liposome fusion, pH 6 C ([1]; R 0.1, 15 min): 44%
Relative liposome fusion, pH 6 UC ([1]; R 0.1, 15 min): 55%
Relative liposome fusion, pH 8 C ([1]; R 0.1, 15 min): 41%
Relative liposome fusion, pH 4 C ([1]; R 0.2, 15 min): 47%
Relative liposome fusion, pH 4 UC ([1]; R 0.2, 15 min): 97%
Relative liposome fusion, pH 6 C ([1]; R 0.2, 15 min): 87%
Relative liposome fusion, pH 6 UC ([1]; R 0.2, 15 min): 68%
Relative liposome fusion, pH 8 C ([1]; R 0.2, 15 min): 64%
Relative liposome fusion, pH 8 UC ([1]; R (peptide/lipid) 0.2 (600 μM), after 15 min, reference set at 100%): 100%
Secondary structure: Alpha [2]: 16%
Secondary structure: Beta [2]: 63%
Secondary structure: Coil [2]: 9%
Secondary structure: Turn [2]: 12%

B1: 16K hPRL: 16 kDa N-terminal fragment of human prolactin, positive control (protein)
chain: LPICPGGAARCQVTLRDLFDRAVVLSHYIHNLSSEMFSEFDKRYTHGRGFITKAINSCHTSSLATPEDKEQAQQMNQKDFLSLIVSILRSWNEPLYHLVTEVRGMQEAPEAILSKAVEIEEQTKRLLEGMELIVSQVHP
percentage of sub-G1 cell population (BACE cells [3]): 55,9%
capillary formation in collagen gel (BACE cells [4]): prevents capillary formation
cell viability [5]: do not affect viability
cell viability [6]: do not affect viability
